This note sets out measurements from patent publication US20060246047A1, “Peptide wirh apoptosis-inhibiting activity” (priority 2003, published 2006).

For experiment [1], the system named is HeLa cells. In words: STS-induced apoptosis in Hela cells, modified TAT-ART peptides (Example 8). The format is cell-based. Particulars: 100, 300 or 1000 nM, 0.2 μM STS, 24 hours. The protocol:
The modified TAT-ART1320 peptides used were TAT-ART1420 (SEQ ID NO: 25) and TAT-ART1320P13V (SEQ ID NO: 26), synthesized with a peptide synthesizer.
Hela cells (1×10^5 cells) were seeded in 12-well plates and incubated for 24 hours. Subsequently, cells were pre-treated for 1 hour by adding TAT-ART1320 or its modified peptide at a final concentration of 100, 300, or 1000 nM, followed by the addition of 0.2 μM STS and incubation for 24 hours. Cells without the addition of TAT-ART1320 or STS, together with cells without the addition of TAT-ART1320, were prepared as controls. Following incubation, cell death was evaluated by the trypan blue exclusion method.

The target in experiment [2] is T1, Bax (Homo sapiens, UniProt Q07812). In words: STS-induced mitochondrial translocation of Bax in COS7 cells, confocal microscopy. Format: cell-based. Set-up: expressed in transfected cells. As to conditions: 1000 nM pretreatment 1 hour, COS7 with pCI-myc-Bax. The procedure:
It is considered that, in order for Bax to induce apoptosis, it is essential for Bax to localize to mitochondria. Thus, the effect of TAT-ARTI320 on STS-induced mitochondrial translocation of Bax was examined.
COS7 cells (4×10^4 cells) were seeded in 12-well plates and incubated for 24 hours and then transfected with 1 μg of the pCI-myc-Bax gene. Subsequently, after further incubation for 23 hours, cells were pretreated for 1 hour with 1000 nM TAT-ART1320. Cells without TAT-ART1320 pretreatment were also prepared as controls. Further, […] of STS and 100 nM MitoTracker Orange (manufactured by Molecular Probes) were added and, after one hour, cells were fixed with 3% formaldehyde solution. Cells without the addition of STS were also prepared as controls.

Another experiment concerns HEK 293T cells. As to the kind of experiment: STS-induced Bax-dependent apoptosis in HEK 293T cells, trypan blue exclusion. The format is cell-based. Particulars: 0.5 μM STS, 24 hours. The protocol:
(§1) It is known that apoptosis induced by staurosporine (STS) is Bax-dependent. Thus, it was examined whether TAT-ART1320 can suppress STS-induced apoptosis.
(§2) HEK 293T cells or HeLa cells, at 5×10^4 cells each, were seeded in 12-well plates and incubated for 24 hours. Subsequently, cells were pre-treated by adding TAT-ART1320 at a final concentration of 100, 300, or 1000 nM, followed by further incubation for 24 hours. Then STS was added to HEK 293T cells and HeLa cells at 0.5 μM and 0.2 μM, respectively, followed by incubation for 24 hours. Cells without the addition of TAT-ART1320 or STS, together with cells without the addition of TAT-ART1320, were prepared as controls. Following incubation, cell death was evaluated by the trypan blue exclusion method.

Experiment [3] deals with HeLa cells. As to the kind of experiment: STS-induced Bax-dependent apoptosis in HeLa cells, trypan blue exclusion. Format: cell-based. Particulars: 0.2 μM STS, 24 hours. The procedure: as §1, §2
In experiment [4] the target is T1, Bax. In words: Apoptosis induced by overexpression of myc-Bax in HEK 293T cells, trypan blue exclusion. Format: cell-based. Set-up: expressed in transfected cells; host or cells: HEK 293T. Particulars: 100, 300 or 1000 nM, 24 hours. The protocol:
(§3) HEK 293T cells (1×10^5 cells) were seeded in 12-well plates and incubated for 24 hours. Subsequently, myc, myc-Bax, or myc-Bak was overexpressed within cells by introducing pCI-myc, pCI-myc-Bax, or pCI-myc-Bakplasmid respectively into HEK 293 T cells. After incubation for 17 hours, TAT-ART1320 was added at a final concentration of 100, 300, or 1000 nM, followed by further incubation for 24 hours. Cells without the addition of TAT-ARTI320 were used as controls. Following incubation, cell death was evaluated by the trypan blue exclusion method.

A further experiment addresses T2, Bak (Homo sapiens, UniProt Q16611).
T2 construct: expressed in transfected cells; host or cells: HEK 293T
T2 sequence (Q16611 1-211): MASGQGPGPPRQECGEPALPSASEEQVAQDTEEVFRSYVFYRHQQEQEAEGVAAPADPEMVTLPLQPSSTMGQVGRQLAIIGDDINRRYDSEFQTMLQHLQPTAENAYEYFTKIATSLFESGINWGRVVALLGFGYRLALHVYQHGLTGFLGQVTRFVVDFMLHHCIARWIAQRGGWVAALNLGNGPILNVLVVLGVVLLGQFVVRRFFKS
As to the kind of experiment: Apoptosis induced by overexpression of myc-Bak in HEK 293T cells, trypan blue exclusion. Particulars: 100, 300 or 1000 nM, 24 hours. The format is cell-based. The protocol: as §3

The subject of experiment [5] is brain ischemia model gerbils. As to the kind of experiment: Brain ischemia model, 4 min bilateral common carotid artery occlusion and reperfusion. Format: in vivo, gerbil. The protocol: Next, to confirm the effect of the peptide according to the present invention on apoptosis-induced diseases, such as neurodegenerative diseases, using a model of brain ischemia induced by a 4 min occlusion of the bilateral common carotid arteries in gerbils the influence of TAT-ART1320 ([…]) on the neurological symptom scores after reperfusion and on delayed neuronal death in hippocampus four days after reperfusion.
Thirteen-week-old male gerbils (SPF, Japan SLC, Inc.) were kept over a week in a barrier system animal room with controlled temperature (23±2° C), humidity (55±15%), ventilation (at least 5 air changes/hour), and light (12 hour light period, 6:30 a.m. to 6:30 p.m.). The gerbils thus maintained, weighing 60 to 80 g, were used as test animals. Food and water were provided at libitum.
Under ether anesthesia, test animals underwent a midline skin incision in the neck to expose the bilateral internal carotid arteries (the ether anesthesia was stopped on exposure of the bilateral internal carotid arteries), which were occluded bilaterally with artery forceps, to induce brain ischemia. Reperfusion was initiated by removing the artery forceps 4 min after occlusion and the skin was sutured, immediately followed by administration of TAT-ART1320 or saline. Subsequently, test animals were warmed under an infrared lamp until their activity was recovered.
TAT-ART1320 was prepared for administration by dissolving 3 or 30 mg of TAT-ART1320 in 10 ml of saline. This solution was administered at a dose of 10 ml/kg BW. Immediately after reperfusion TAT-ART1320 was intravenously injected into the caudal vain of each animal at 3 mg/kg BW or 30 mg/kg BW, followed by another intravenous injection after 5 hours. (The animals (n=13) receiving TAT-ART1320 at 3 mg/kg BW and animals receiving TAT-ART1320 at 30 mg/kg BW were called the 3 mg/kg group and the 30 mg/kg group, respectively.) The next day, intravenous injection was switched to subcutaneous injection and the same doses of TAT-ART1320 were administered twice at intervals of 5 hours, followed by once-daily SC injection. Animals (n=13: control group) receiving only saline were used as controls.
Immediately after reperfusion and subsequent administration of TAT-ART1320 or saline, observation of symptoms of the central nervous system (disturbance of consciousness, convulsions, suppression of motor responses, blepharoptosis) was started. […]
The bilateral hippocampal regions were excised from the fixed brain and 4 μm paraffin sections (about 1.5 mm posterior from the bregma) were prepared from each hippocampus. […] Subsequently, the length of bilateral hippocampal CA1 regions was measured with an image analyzer (MacSCOPE). Further, the number of survived neurons in each section was counted under a microscope. […]

Experiment [6] deals with T1, Bax. As to the kind of experiment: Apoptosis-suppressive activity, summary statements without a stated test. Format: cell-based. Set-up: expressed in transfected cells; host or cells: HEK 293T. Particulars: summary statement.
Experiment [7] deals with T1, Bax. As to the kind of experiment: Bax-induced apoptosis in pCI-Bax-transfected HEK 293T cells with HTA1320 added, trypan blue exclusion. Format: cell-based. Also on record: expressed in transfected cells; host or cells: HEK 293T. As to conditions: survival after 40 hours. The protocol:
It was examined whether or not HTAI320, prepared in Example 3, inhibits Bax-induced apoptosis-promoting activity. HEK 293T cells were plated at 1×10^5 cells per well on 12-well plastic dishes and incubated overnight. Subsequently, cells were transfected with pCI-Bax by lipofection using opti-MEM (manufactured by GibcoBRL) and Lipofectamine (manufactured by GibcoBRL). After five hours, the medium was changed and HTA1320 were added at various concentrations. Subsequently, the cell survival rate after 40 hours was evaluated by the trypan blue exclusion method. As a result, HTA1320 inhibited Bax-induced apoptosis-promoting activity.

T1 sequence (Q07812 whole entry): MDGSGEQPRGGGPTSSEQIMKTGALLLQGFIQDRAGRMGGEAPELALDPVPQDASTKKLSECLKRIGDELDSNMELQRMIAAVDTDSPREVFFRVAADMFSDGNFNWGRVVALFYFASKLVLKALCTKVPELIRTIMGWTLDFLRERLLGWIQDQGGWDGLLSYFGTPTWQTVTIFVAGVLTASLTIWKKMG

On to VTSSEQIM (ART1320P13V) [SEQ ID NO: 7], for which the “suppression of STS-induced apoptosis compared with TAT-ART1320 (SEQ ID NO: 2 peptide)” value with HeLa cells [1] is reported as “stronger suppressive activity”.

For the molecule “TAT-ART1320: HIV-TAT sequence linked to ART positions 13 to 20, synthesized with a peptide synthesizer (YGRKKRRQRRRPTSSEQIM; TAT-ART1320)”, the “STS-induced mitochondrial localization / translocation of Bax” value with Bax [2] is reported as “Bax did not localize to mitochondria”. Besides, the “concentrations suppressing STS-induced apoptosis” value lay within 1 to 100 nM in the experiment with HEK 293T cells and 100 to 1000 nM with HeLa cells [3]. The “inhibition of apoptosis induced by overexpression of Bax” value in the experiment with Bax [4] is given as “inhibits”. The “inhibition of apoptosis induced by overexpression of Bak” value with Bak was “cannot inhibit”. Moreover, the “change of neurological symptoms scores with dose” value in [5] (3 mg/kg and 30 mg/kg groups) was “dose-dependent decrease”. For the same molecule, in [5] (30 mg/kg group, four days after reperfusion, control 15.4±5.2), the “number of survived neurons per unit length in hippocampal CA1” value is on record as 74.5±23.1. Moreover, the neurological symptoms score in experiment [5] (30 mg/kg group, i.v. then s.c., control 8.2±1.4, P<0.05) was found to be 2.8±0.6. Also, the “neuronal death in hippocampal CA1” value in experiment [5] (3 and 30 mg/kg groups, four days after reperfusion) is on record as “significantly suppresses neuronal death”.

On to “TAT-ART1420: modified TAT-ART1320 peptide, ART positions 14 to 20, synthesized with a peptide synthesizer (YGRKKRRQRRRTSSEQIM; TAT-ART1420)”, for which, in the experiment with HeLa cells [1], the “suppression of STS-induced apoptosis compared with TAT-ART1320 (SEQ ID NO: 2 peptide)” value is given as “equal to or greater than that of TAT-ART1320”.

Turning to “SEQ ID NO: 1: peptide from threonine in the 14th position to methionine in the 20th position of the ART sequence (TSSEQIM; Inventor Imoto, Masaya Inventor Tabe, Hirokazu Inventor Tashiro, Etsu Inventor OHMORI, Yusuke; listed as Homo sapiens)”, in the experiment with Bax [6], the apoptosis-suppressive activity entry is “stronger apoptosis- suppressive activity than the peptide (SEQ ID NO: 2)”. Further, in the experiment on HeLa cells [1], the “suppression of STS-induced apoptosis compared with TAT-ART1320 (SEQ ID NO: 2 peptide)” value is “stronger suppressive activity”.

As for “SEQ ID NO: 2: peptide from proline in the 13th position to methionine in the 20th position of the ART sequence (PTSSEQIM; listed as Homo sapiens)”, the “STS-induced mitochondrial localization / translocation of Bax” value with Bax [2] is “effect of suppressing SIS-induced mitochondrial translocation of Bax”. In addition, the apoptosis-suppressive activity result with Bax [6] is recorded as “strong apoptosis-suppressive activity”.

B1: HTA1320: E. coli-expressed peptide of ART positions 13 to 20 with HIV-Tat sequence and His sequence (protein)
chain: MRGSHHHHHHGMASMTGGQQMGRDLYDDDDKDRWIRPRDLQLVPWYGRKKRRQRRRPTSSEQIM
modifications: His-Tat-ART13/20(HTA1320)
Regarding B1, in the experiment with Bax [7] (low concentrations), the “apoptosis-suppressive activity at low concentrations versus high concentrations” value is listed as “almost equivalent to that at high concentrations”. Besides, the “inhibition of Bax-induced apoptosis-promoting activity” value with Bax [7] (various concentrations) was “inhibited”.
